Test results from patent US20250129055A1, “GLUCOSIDE DERIVATIVE, AND PREPARATION METHOD THEREFOR AND APPLICATION THEREOF” (BEIJING INCREASE INNOVATIVE DRUG CO., LTD., priority 2020, published 2025).

What was measured:
SGLT2 = SGLT2 (Homo sapiens (Human), UniProt P31639); assay: In vitro SGLT2 inhibitory activity: 1-NBDG uptake by CHO-SGLT2 cells; assay type: cell-based
Method: The effect of the compounds on SGLT2-mediated glucose uptake was investigated by establishing an SGLT2 overexpression cell model and using the fluorescent glucose (2-deoxy-1-[(7-nitro-2,1,3-benzoxadiazol-4-yl)amino]-D-glucose, 1-NBDG) tracer method to screen out candidate compounds with SGLT2 inhibitory activity.
The humanized SGLT2 overexpression cells (CHO-SGLT2) constructed from Chinese hamster ovary (CHO) cells were cultured in 1640 medium (Gibco) containing 10% fetal bovine serum (Gibco, 10270), subcultured at a ratio of 1:3, and replaced with new culture medium 3 times every week. Fluorescence detection cell culture plates and other culture flasks were purchased from Corning Company. […] Appropriate amounts of all compounds were weighed, prepared into 100 mM stock solutions with DMSO, and stored at 4° C. in the dark.
Before the 1-NBDG uptake test, CHO-SGLT2 cells were digested and seeded in a 96-well cell culture plate with a cell number of 40,000/well. After the cells were cultured for 48 h, the medium was discarded, and 100 μl of choline buffer was added to each well. After the cells were starved at 37° C. for 30 min, the choline buffer was discarded and 100 μl of the newly prepared Na^+ sodium buffer containing […] 1-NBDG and the test compounds (Compound) was added. The solvent DMSO was used as the negative control (Control) for the test compounds.
The Na^+ sodium buffer without 1-NBDG was used as the blank control (Blank). After 1 h of culture, the incubation solution was discarded. The cells were washed with choline buffer solution 3 times, and then 50 μl of neutral lysate was added to each well to lyse the cells on ice for 10 min. The fluorescence value of each well was detected using a multi-functional microplate reader at […].
At least 3 experimental replicates were set for each compound at indicated concentrations, and the data were expressed as mean±SEM. Uptake amount of 1-NBDG by cells=fluorescence value1-NBDG-fluorescence valueBlank. Inhibition rate on uptake amount of SGLT2 glucose (%)=(uptake amountcontrol−uptake amountcompound)/uptake amountcontrol×100%. Concentration-inhibition rate curves were plotted using Graphpad Prism software, and IC50 values were calculated accordingly.

Alloxan diabetic mice = assay: Efficacy in Alloxan diabetes model mice; assay type: in vivo; settings: for HbA1c: 32nd day; for Concentration of blood glucose 2 h: 2 h after administration; for Concentration of blood glucose 4 h: 4 h after administration; for Concentration of blood glucose 8 h: 8 h after administration; for Concentration of blood glucose 24 h: 24 h after administration; for Concentration of blood glucose 0 h: before administration; for Concentration of blood glucose (random): random blood glucose on the 28th day
Method: Test Example 3 Research on efficacy of the compounds of the present invention in in vivo anti-Alloxan diabetes model mice
Alloxan diabetes mice were used. Normal ICR mice (male, 22-24 g) were randomly divided into groups including normal group, model group (con), positive control group and test compound groups with four different doses (n=11), and the mice without injection of Alloxan were in a normal control group (n=10).
Mice were administered with drugs by gavage.
Single administration: Mice were fasted for 3 h, and then the fasting blood (0 min) was collected. Then the mice in each group were administered with drugs by gavage. After 1 h, they were administered with a glucose ([…]) solution. Blood was collected at 30 min, 60 min, 120 min, and 180 min after the glucose administration. The blood glucose level was measured using glucose oxidase-peroxidase method, and the area under the blood glucose curve was calculated.
On the 6th day of continuous administration, under the condition of no fasting, blood samples were collected from mice before administration (0 h), 1 h, 2 h, 4 h, 8 h and 24 h after administration to measure blood glucose.
On the 9th day of continuous administration, the mice were fasted for 1 h and then administered with drugs by gavage. An oral glucose tolerance test (OGTT) was performed 1 h after administration.
On the 16th day of continuous administration, under the condition of no fasting, urine samples were collected from mice 1 h after administration to measure the concentration of urine glucose.
On the 22nd day of continuous administration, the mice were fasted for 1 h and then administered with drugs by gavage, and blood samples were collected to measure the fasting blood glucose 1 h after administration.
On the 28th day of continuous administration, under the condition of no fasting, blood samples were collected from mice 1 h after administration to measure the random blood glucose.
On the 32nd day of continuous administration, under the condition of no fasting, blood samples were collected from mice to measure glycosylated hemoglobin (HbA1c).
The data were expressed as mean±SEM (n=10-11). The comparison between multiple groups was performed by one-way analysis of variance, and the comparison between two groups was performed by Dunnett's t test. Statistical graphing was performed using Graphpad Prism software.

[1] = 0.25 mg/kg, OGTT on the 9th day
[2] = 0.25 mg/kg, non-fasting, 6th day
[3] = 0.5 mg/kg, non-fasting, 6th day
[4] = 1.0 mg/kg, non-fasting, 6th day
[5] = 2.0 mg/kg, non-fasting, 6th day

SGLT2, sequence (P31639 whole entry): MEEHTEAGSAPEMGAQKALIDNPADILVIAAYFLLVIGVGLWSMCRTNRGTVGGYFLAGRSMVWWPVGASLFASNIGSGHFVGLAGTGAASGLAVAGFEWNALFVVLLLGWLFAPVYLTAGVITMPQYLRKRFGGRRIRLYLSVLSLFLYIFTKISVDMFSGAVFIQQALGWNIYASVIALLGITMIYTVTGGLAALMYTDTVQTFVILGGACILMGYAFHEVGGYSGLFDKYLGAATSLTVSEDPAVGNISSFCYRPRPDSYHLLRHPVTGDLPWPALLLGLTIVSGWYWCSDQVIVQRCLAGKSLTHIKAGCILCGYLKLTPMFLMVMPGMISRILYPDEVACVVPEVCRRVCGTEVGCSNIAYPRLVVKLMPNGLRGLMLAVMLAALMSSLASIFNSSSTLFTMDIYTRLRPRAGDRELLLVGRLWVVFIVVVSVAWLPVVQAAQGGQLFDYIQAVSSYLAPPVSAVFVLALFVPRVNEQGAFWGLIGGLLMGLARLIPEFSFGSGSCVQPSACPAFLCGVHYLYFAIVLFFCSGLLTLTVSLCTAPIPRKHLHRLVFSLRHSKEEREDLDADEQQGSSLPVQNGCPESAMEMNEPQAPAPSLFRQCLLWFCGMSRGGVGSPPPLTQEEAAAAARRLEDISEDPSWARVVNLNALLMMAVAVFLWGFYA

## CS[C@H]1O[C@@H](c2ccc(C)c(Cc3ccc4c(c3)OCCO4)c2)[C@H](O)[C@@H](O)[C@@H]1O (stereo in doubt) [Compound 2, 2-[3-(2,3-dihydro-1,4-benzodioxin-6-ylmethyl)-4-methylphenyl]-6-(methylthio)oxane-3,4,5-triol]
SGLT2; CHO-SGLT2 cells, 1-NBDG uptake, read-out: IC50 inhibiting SGLT2
  IC50: 0.105 nM
SGLT2; compound concentration 1 × 10^−6 mol/L, read-out: Inhibition rate of compounds on SGLT2 (%)
  inhibition at 1 µM: 107 ± 1.1%
SGLT2; compound concentration 1 × 10^−10 mol/L, read-out: Inhibition rate of compounds on SGLT2 (%)
  inhibition at 0.0001 µM: 40.6 ± 1%
SGLT2; compound concentration 1 × 10^−11 mol/L, read-out: Inhibition rate of compounds on SGLT2 (%)
  inhibition at 10 pM: 0%
SGLT2; compound concentration 1 × 10^−12 mol/L, read-out: Inhibition rate of compounds on SGLT2 (%)
  inhibition at 1 pM: 0.3 ± 6.4%
SGLT2; compound concentration 5 × 10^−7 mol/L, read-out: Inhibition rate of compounds on SGLT2 (%)
  inhibition at 0.5 µM: 81.6 ± 2.5%
SGLT2; compound concentration 5 × 10^−9 mol/L, read-out: Inhibition rate of compounds on SGLT2 (%)
  inhibition at 0.005 µM: 80.7 ± 3%
SGLT2; compound concentration 5 × 10^−10 mol/L, read-out: Inhibition rate of compounds on SGLT2 (%)
  inhibition at 0.0005 µM: 61.9 ± 3.6%
SGLT2; compound concentration 5 × 10^−11 mol/L, read-out: Inhibition rate of compounds on SGLT2 (%)
  inhibition at 50 pM: 39.2 ± 2.1%
Alloxan diabetic mice; 0.25 mg/kg
  Concentration of fasting blood glucose, the 9th day: 307.7 ± 23.1 mg/dL
  Concentration of fasting blood glucose, the 22nd day: 305.6 ± 16.5 mg/dL
  HbA1c: 7.2 ± 0.4%
  Concentration of blood glucose (random): 491.1 ± 26.5 mg/dL
Alloxan diabetic mice; [1]
  AUC of blood glucose: 541.5 ± 22.8 mg·h/dL
  Concentration of blood glucose 0 min: 307.7 ± 23.1 mg/dL
  Concentration of blood glucose 30 min: 303.0 ± 8.6 mg/dL
  Concentration of blood glucose 60 min: 268.5 ± 13.5 mg/dL
  Concentration of blood glucose 120 min: 223.4 ± 11.6 mg/dL
Alloxan diabetic mice; 0.25 mg/kg, non-fasting, 6th day, 0-24 h
  AUC of blood glucose: 12051 ± 437.8 mg·h/dL
Alloxan diabetic mice; 0.25 mg/kg, non-fasting, 6th day, 1 h after administration
  Concentration of blood glucose 1 h: 458.4 ± 25.2 mg/dL
Alloxan diabetic mice; [2]
  Concentration of blood glucose 2 h: 430.7 ± 31.3 mg/dL
  Concentration of blood glucose 4 h: 404.3 ± 33.8 mg/dL
  Concentration of blood glucose 8 h: 478.2 ± 23.3 mg/dL
  Concentration of blood glucose 24 h: 585.3 ± 17.9 mg/dL
  Concentration of blood glucose 0 h: 540.1 ± 20.1 mg/dL
Alloxan diabetic mice; 0.5 mg/kg
  Concentration of fasting blood glucose, the 9th day: 249.7 ± 14.7 mg/dL
  Concentration of fasting blood glucose, the 22nd day: 236.0 ± 13.7 mg/dL
  HbA1c: 6.1 ± 0.4 %
  Concentration of blood glucose (random): 437.9 ± 23.9 mg/dL
Alloxan diabetic mice; 0.5 mg/kg, OGTT on the 9th day
  AUC of blood glucose: 468.3 ± 18.1 mg·h/dL
  Concentration of blood glucose 0 min: 249.7 ± 14.7 mg/dL
  Concentration of blood glucose 30 min: 290.3 ± 13.0 mg/dL
  Concentration of blood glucose 60 min: 231.0 ± 10.1 mg/dL
  Concentration of blood glucose 120 min: 175.0 ± 12.0 mg/dL
Alloxan diabetic mice; 0.5 mg/kg, non-fasting, 6th day, 0-24 h
  AUC of blood glucose: 12059 ± 372.3 mg·h/dL
Alloxan diabetic mice; 0.5 mg/kg, non-fasting, 6th day, 1 h after administration
  Concentration of blood glucose 1 h: 488.6 ± 15.9 mg/dL
Alloxan diabetic mice; [3]
  Concentration of blood glucose 2 h: 474.7 ± 18.1 mg/dL
  Concentration of blood glucose 4 h: 386.0 ± 21.8 mg/dL
  Concentration of blood glucose 8 h: 473.9 ± 28.2 mg/dL
  Concentration of blood glucose 24 h: 585.6 ± 15.0 mg/dL
  Concentration of blood glucose 0 h: 551.9 ± 18.2 mg/dL
Alloxan diabetic mice; 1.0 mg/kg
  Concentration of fasting blood glucose, the 9th day: 201.2 ± 11.4 mg/dL
  Concentration of fasting blood glucose, the 22nd day: 224.4 ± 17.6 mg/dL
  HbA1c: 5.9 ± 0.6 %
  Concentration of blood glucose (random): 395.8 ± 24.1 mg/dL
Alloxan diabetic mice; 1.0 mg/kg, OGTT on the 9th day
  AUC of blood glucose: 410.6 ± 15.6 mg·h/dL
  Concentration of blood glucose 0 min: 201.2 ± 11.4 mg/dL
  Concentration of blood glucose 30 min: 253.9 ± 7.7 mg/dL
  Concentration of blood glucose 60 min: 205.3 ± 9.8 mg/dL
  Concentration of blood glucose 120 min: 158.6 ± 8.8 mg/dL
Alloxan diabetic mice; 1.0 mg/kg, non-fasting, 6th day, 0-24 h
  AUC of blood glucose: 10310 ± 308.4 mg·h/dL
Alloxan diabetic mice; 1.0 mg/kg, non-fasting, 6th day, 1 h after administration
  Concentration of blood glucose 1 h: 417.1 ± 14.8 mg/dL
Alloxan diabetic mice; [4]
  Concentration of blood glucose 2 h: 409.8 ± 16.7 mg/dL
  Concentration of blood glucose 4 h: 323.8 ± 16.1 mg/dL
  Concentration of blood glucose 8 h: 368.3 ± 19.4 mg/dL
  Concentration of blood glucose 24 h: 550.3 ± 17.0 mg/dL
  Concentration of blood glucose 0 h: 444.1 ± 19.2 mg/dL
Alloxan diabetic mice; 2.0 mg/kg
  Concentration of fasting blood glucose, the 9th day: 184.9 ± 18.3 mg/dL
  Concentration of fasting blood glucose, the 22nd day: 211.9 ± 17.8 mg/dL
  HbA1c: 6.0 ± 0.4 %
  Concentration of blood glucose (random): 391.2 ± 26.0 mg/dL
Alloxan diabetic mice; 2.0 mg/kg, OGTT on the 9th day
  AUC of blood glucose: 393.9 ± 25.6 mg·h/dL
  Concentration of blood glucose 0 min: 184.9 ± 18.3 mg/dL
  Concentration of blood glucose 30 min: 246.0 ± 11.7 mg/dL
  Concentration of blood glucose 60 min: 205.1 ± 12.6 mg/dL
  Concentration of blood glucose 120 min: 141.7 ± 14.6 mg/dL
Alloxan diabetic mice; 2.0 mg/kg, non-fasting, 6th day, 0-24 h
  AUC of blood glucose: 11326 ± 225.5 mg·h/dL
Alloxan diabetic mice; 2.0 mg/kg, non-fasting, 6th day, 1 h after administration
  Concentration of blood glucose 1 h: 414.1 ± 18.3 mg/dL
Alloxan diabetic mice; [5]
  Concentration of blood glucose 2 h: 460.2 ± 15.0 mg/dL
  Concentration of blood glucose 4 h: 390.6 ± 28.2 mg/dL
  Concentration of blood glucose 8 h: 434.0 ± 18.8 mg/dL
  Concentration of blood glucose 24 h: 559.3 ± 10.4 mg/dL
  Concentration of blood glucose 0 h: 473.0 ± 16.2 mg/dL
Alloxan diabetic mice; 6th day, dapagliflozin 2.0 mg/kg, Compound 2 0.25-2.0 mg/kg
  Duration of hypoglycemic effect: still had a good hypoglycemic effect after 8-24 h
Alloxan diabetic mice; continuous administration for 16 days, 0.25-2.0 mg/kg, non-fasting, 1 h after administration
  Concentration of urine glucose: significantly increase
Alloxan diabetic mice; continuous administration for 22 days, 0.25-2.0 mg/kg
  Effect on body weight, food intake and water intake: no obvious effect
Alloxan diabetic mice; single administration, 0.25, 0.5, 1.0 and 2.0 mg/kg
  Blood glucose level and AUC after glucose administration: significantly lower
